Measured values taken from article PMC5974752, “Bax/Tubulin/Epithelial-Mesenchymal Pathways Determine the Efficacy of Silybin Analog HM015k in Colorectal Cancer Cell Growth and Metastasis” (Frontiers in Pharmacology, 2018).

Key:
CHO = experiment: MTT assay, normal cell line; assay type: cell-based, Chinese hamster; conditions: Cricetulus griseus, 72 h incubation, mean ± SD of three experiments
Procedure: (§1) The 3-(4,5-dimethylthiazol-2-yl)-2,5-diphenyltetrazolium bromide (MTT) assay was used to determine the sensitivity of the different CRC cells to the novel silybin derivatives (Hussein et al., [2017]; Manivannan et al., [2017]). The cells were seeded at a density of 4,000–5,000 cells/well in 96 well plates and incubated with serial dilutions of the compounds (0, 0.1, 0.3, 1, 3, 10, 30, and 100 μM). The MTT dye (4 mg/ml) was added after 72 h of incubation and incubated with the cells for an additional 4 h at 37°C. Following incubation, the media was discarded and the formazan crystals were dissolved by adding 100 μL of DMSO to each well. A DTX 880 multimode detector (Beckman Coulter Life, Indianapolis IN, USA) was used to determine the absorbance readings at a wavelength of 570 nm. The IC50 values were determined based on 3 separate experiments, with each experiment done in triplicate. The selectivity of the compounds was determined by comparing their cytotoxicity for CRC to normal epithelial cell lines (CHO, and CRL1459).

S1 = experiment: MTT assay; assay type: cell-based; conditions: Homo sapiens, 72 h incubation, mean ± SD of three experiments, read-out: IC50 ± SD, Colon S1
Procedure: as §1

LOVO = experiment: MTT assay; assay type: cell-based; conditions: Homo sapiens, 72 h incubation, mean ± SD of three experiments, read-out: IC50 ± SD, Colon LOVO
Procedure: as §1

HCT116 = experiment: MTT assay; assay type: cell-based, human; conditions: for IC50: Homo sapiens, HCT-116, MTT, 72 h incubation, mean ± SD of three experiments, read-out: IC50 ± SD, Colon HCT116
Procedure: as §1

CRL-1459 = experiment: MTT assay, normal cell line; assay type: cell-based; conditions: 72 h incubation, mean ± SD of three experiments
Procedure: as §1

[1] = tested on: CRC cell lines (HCT116, LOVO, and S1); experiment: MTT assay, CRC cell lines together; assay type: cell-based, human; conditions: from MTT IC50; LOVO and S1
Procedure: as §1

Question: How did the IC50 (CHO) turn out when Cc1ccc(C(=O)/C=C/c2cccc(OCc3ccccc3)c2)cc1 [Compound 15e] was run?
Answer: 26.4 ± 0.9 µM

Question: And the IC50 (S1)?
Answer: 22.4 ± 1.9 µM

Question: And the IC50 (LOVO)?
Answer: 36.5 ± 1.3 µM

Question: What about the IC50 (HCT116) of the same compound?
Answer: 16.5 ± 3.1 µM

Question: And the IC50 (CRL-1459)?
Answer: 19.8 ± 1.3 µM

Question: For O=C(/C=C/c1cccc(OCc2ccccc2)c1)c1ccc([N+](=O)[O-])cc1 [Compound 15d], which IC50 (CHO) is on record?
Answer: 82.4 ± 1.7 µM

Question: And the IC50 (S1)?
Answer: 9 ± 1.2 µM

Question: And the IC50 (LOVO)?
Answer: 36.3 ± 9.1 µM

Question: And the IC50 (HCT116)?
Answer: 22.7 ± 4.2 µM

Question: And the IC50 (CRL-1459)?
Answer: 26 ± 1.6 µM

Question: For O=C(/C=C/c1cccc(OCc2ccccc2)c1)c1cccc(Br)c1 [Compound 15i], which IC50 (CHO) is on record?
Answer: 9.2 ± 0.4 µM

Question: And the IC50 (S1)?
Answer: 6.2 ± 1.9 µM

Question: What about the IC50 (LOVO) of the same compound?
Answer: 7.5 ± 0.9 µM

Question: What about the IC50 (HCT116) of the same compound?
Answer: 1.9 ± 0.1 µM

Question: And the IC50 (CRL-1459)?
Answer: 7.2 ± 0.9 µM

Question: O=C(/C=C/c1cccc(OCc2ccccc2)c1)c1ccc(Cl)cc1 [Compound 15b] was tested. Which IC50 (CHO) did it give?
Answer: 43.6 ± 1.9 µM

Question: What about the IC50 (S1) of the same compound?
Answer: 9.5 ± 1.4 µM

Question: And the IC50 (LOVO)?
Answer: 36.5 ± 1.5 µM

Question: What about the IC50 (HCT116) of the same compound?
Answer: 12.7 ± 1.4 µM

Question: And the IC50 (CRL-1459)?
Answer: 12.8 ± 2.1 µM

Question: What does the source list for O=C(/C=C/c1cccc(OCc2ccccc2)c1)c1ccc(Cl)c(Cl)c1Cl [Compound 15g]?
Answer: IC50 (CHO): 8.6 ± 0.9 µM; IC50 (S1): 2.3 ± 0.7 µM; IC50 (LOVO): 2.4 ± 0.4 µM; IC50 (HCT116): 0.4 µM; fold more efficacious than compound 15c (HCT116; from MTT IC50, cell line not given): 22 fold; fold more efficacious than compound 15c in LOVO and S1 cells [1]: three-fold; IC50 (CRL-1459): 2.5 ± 0.2 µM

Question: How did the IC50 (CHO) turn out when O=C(/C=C/c1cccc(OCc2ccccc2)c1)c1ccc(Cl)cc1Cl [Compound 15c] was run?
Answer: 27.5 ± 1.2 µM

Question: What about the IC50 (S1) of the same compound?
Answer: 6.9 ± 1.1 µM

Question: And the IC50 (LOVO)?
Answer: 6.7 ± 2.2 µM

Question: And the IC50 (HCT116)?
Answer: 9 ± 1.1 µM

Question: And the IC50 (CRL-1459)?
Answer: 7.8 ± 1.1 µM

Question: Which results are given for O=C(/C=C/c1cccc(OCc2ccccc2)c1)c1ccccc1Br [Compound 15h]?
Answer: IC50 (CHO): 9.1 ± 0.2 µM; IC50 (S1): 1.9 ± 0.5 µM; IC50 (LOVO): 1.9 ± 0.3 µM; IC50 (HCT116): 0.7 ± 0.2 µM; IC50 (CRL-1459): 2.4 ± 0.9 µM

Question: What does the source list for O=C(/C=C/c1cccc(OCc2ccccc2)c1)c1ccccc1 [Compound 15a]?
Answer: IC50 (CHO): 22 ± 1.7 µM; IC50 (S1): 2.8 ± 0.5 µM; IC50 (LOVO): 11.5 ± 0.8 µM; IC50 (HCT116): 6.4 ± 0.2 µM; IC50 (CRL-1459): 7.8 ± 1 µM

Question: With COc1ccc(C(=O)/C=C/c2cccc(OCc3ccccc3)c2)cc1 [Compound 15f] as the compound, how does the IC50 (CHO) read?
Answer: 22.9 ± 0.3 µM

Question: And the IC50 (S1)?
Answer: 23.4 ± 2.4 µM

Question: What about the IC50 (LOVO) of the same compound?
Answer: 11.8 ± 3.5 µM

Question: And the IC50 (HCT116)?
Answer: 44.7 ± 3.1 µM

Question: What about the IC50 (CRL-1459) of the same compound?
Answer: 25.4 ± 1.9 µM
